The values below come from patent US8227457B2, “Method for treatment of diseases” (DMI Acquisition Corp., priority 2009, dated 2012).

Assay [1] has as its system HUVECs. Description: HUVEC tube formation assay on matrigel plugs. Particulars: 18 hours, 5% FCS. The class given is cell-based, human. On the procedure: To investigate the formation of capillary-like structures by HUVECs, the Angiogenesis System: Endothelial Cell Tube Formation Assay was purchased from BD Biosciences (San Jose, Calif.) and used according to the manufacturer's protocol. In brief, 100,000 HUVECs were seeded onto rehydrated matrigel plugs in 96 well tissue culture plates in the presence of 5% FCS to induce tube formation.
Endothelial cells when cultured in the presence of angiogenic substances and supplied with an extracellular matrix scaffold will differentiate into structures loosely resembling capillary vessels.

The test system of assay [2] is HUVECs. Description: HUVEC invasion (BioCoat Matrigel Invasion Chambers). Type of assay: cell-based, human. Particulars: 10 μM and 100 μM, 24 hours. On the procedure:
BioCoat Matrigel Invasion Chambers were purchased from BD Biosciences (San Jose, Calif.). Inserts were rehydrated at 37° C. with 500 μl HBSS for 2 hours prior to use in humidified incubator. Trypsinized HUVECs were washed twice with warm EGM-2 containing 0.1% FCS and added to the upper chamber of the invasion insert at 100,000 cells in a total volume of 250 μl. […]. Non-invasive cells were removed from the upper chamber with moistened cotton swabs and then the inserts were washed twice with HBSS. The inserts were then submerged in 10 μM calcein AM prepared in HBSS and incubated for 4 hours. Fluorescence was determined in a microplate reader at 485 nm excitation and 595 nm emission.
All data is presented as representative experiment done in triplicate. Differences between subsets were analyzed using student t-test in Microsoft Excel. P<0.05 was considered statistically significant.

The subject of assay [3] is HUVECs. Description: HUVEC scratch migration assay. Type of assay: cell-based, human. The conditions noted are these: 50 μM, 75 μM and 100 μM. On the procedure:
Passage 8 HUVECs, lot number 8750 (obtained from Lonza), were plated in 6-well plates (ICS BioExpress) in endothelial growth medium-2 (EGM-2) complete medium (obtained from Lonza). […] The monolayers were then “scratched” with a 1000 μl pipet tip and washed two times with warm EGM-2 medium. […] The wells were photographed again. The gaps were measured in each photograph using Adobe Photoshop software, and gap measurements are presented as the number of pixels in the gap.

Assay [4] deals with human umbilical vein endothelial cells. Description: Transendothelial electrical resistance (TER), Example 4, HUVEC. The class given is cell-based. Particulars: 1 μM, umbilical vein endothelial cell monolayers. On the procedure: […]. Assays were also performed in the same manner using passage 8 human brain endothelial cells and passage 8 human umbilical vein endothelial cells.
An initial TER measurement was taken for each insert using EVOM^2 voltohmmeter connected to an STX100 electrode (both from World Precision Instruments). Measurements were also taken at 24, 48, 72 and 144 hours. All data are presented as TER measurements/cm^2 of insert with TER of blank inserts subtracted.

Assay [5] deals with human retinal endothelial cells. Description: Actin stress fiber formation (rhodamine-phalloidin F-actin staining), VEGF, Example 8. Type of assay: cell-based. Particulars: for effect on VEGF-induced stress fiber pattern: then VEGF 25 ng/ml 30 minutes. On the procedure:
. […] To counter-stain for nuclei, 100 μl of a 3 μM DAPI (4,6-diamidino-2-phenylindole, dilactate (Invitrogen)) solution was added to each well. After 5 minutes, the cells were washed two times with 100 μl PBS.

For the next assay, the system named is VE-Cadherin. Description: VE-cadherin phosphorylation (immunoprecipitation, Pro-Q diamond / SYPRO ruby densitometry). Type of assay: cell-based, human. The conditions noted are these: danazol 0.1 μM, VEGF 50 ng/ml. On the procedure:
The plates were immediately treated to lyse the cells as follows. PBS and the lysis buffer (PBS containing 1% Triton X-100 supplemented with phosphatase inhibitor solutions 1 and 2 (Sigma), protease inhibitor (Sigma) and sodium orthovanadate at a final concentration of 2 mM) were cooled to 4° C. The cells were washed two times with 5 ml of the ice cold PBS and then lysed in 500 μl of the ice cold lysis buffer. The resulting protein extracts were transferred to 1.7 ml microcentrifuge tubes, and cell debris was removed by spinning at 4° C. at 10,000 rpm for 10 minutes. Then, 450 μl of the cleared solution was transferred to tubes containing 25 μl of Protein Dynabeads (Invitrogen) coated with 10 μl C19 anti-VE cadherin polyclonal antibody (Santa Cruz Biotechnology) (coating performed following manufacturer's protocol). The extracts and beads were then incubated overnight at 4° C. on an orbital shaker to capture VE cadherin from the extracts. The beads were then washed four times with ice cold lysis buffer. To release the protein from the beads, they were heated for 10 minutes at 75° C. in SDS loading dye containing 20% reducing dye (Invitrogen).
The released proteins were separated in 4-20% polyacrylamide gels (Invitrogen) at 120 volts for 1 hour. To determine phosphorylation and total protein in the gels, Pro-Q diamond (Invitrogen) and SYPRO ruby (Invitrogen) protein staining were sequentially performed following the manufacturer's protocol. The gels were photographed and densitometry performed using a Kodak imaging station.

Assay [6] concerns human retinal endothelial cells. Description: Actin stress fiber formation, Example 11, retinal cells.
For assay [7], the system named is human renal glomerular microvascular endothelial cells. Description: Actin stress fiber formation, Example 11, glomerular cells. The conditions noted are these: danazol 1 μM with TNFα 1 ng/ml.
Assay [8] relates to human retinal endothelial cells. Description: Actin stress fiber formation (rhodamine-phalloidin F-actin staining), TNFα, Example 7. Particulars: 30 minutes.
The test system is the same in assay [9]. Description: TER of retinal endothelial cell monolayers with steroid receptor antagonists, Example 6.
The test system is the same in assay [10]. Description: TER of retinal endothelial cell monolayers with steroid receptor antagonists and hormones, Example 10.
Setting [11] is: 0.1 μM hydroxyflutamide followed by 0.1 μM danazol.

In the case of `C#C[C@]1(O)CC[C@H]2[C@@H]3CCC4=Cc5oncc5C[C@]4(C)[C@H]3CC[C@@]21C` [Danazol, 17α-pregna-2,4-dien-20-yno[2,3-d]isoxazol-17β-ol], the “effect on tube formation” value is “no effect on tube formation” with HUVECs [1] (1 μM or 10 μM) and “effective inhibitor of tube formation” in the assay on HUVECs [1] (50 μM). Moreover, the “effect on FCS-induced cell invasion” value with HUVECs [2] is “no effect”. Further, the “effect on HUVEC migration” value in the assay with HUVECs [3] is “significantly inhibit HUVEC migration”. Also, the “effect on TER” value in assay [4] is on record as “enhanced TER measurements”. For the same compound, the “effect on VEGF-induced stress fiber pattern” value in assay [5] (0.1 μM danazol 30 minutes) is “made the stress fibers less pronounced and some diffuse staining appeared”; in assay [5] (1.0 μM danazol 30 minutes), “fewer thick stress fibers, but focal points were seen on contact surfaces”; in assay [5] (10.0 μM danazol 30 minutes), “strong stress fiber development with focal points”. Further, the F-actin staining pattern entry in assay [5] (0.1 μM danazol alone) is “diffuse F-actin staining throughout the cytoplasm”; in assay [5] (1.0 μM danazol alone), “the diffuse staining persisted, but stress fibers and focal points around the perimeter of most cells were visible”; in assay [5] (10.0 μM danazol alone), “no longer any diffuse staining, and stress fiber development and focal points were seen”; in assay [8] (0.1 μM danazol) it was “diffuse staining throughout the cytoplasm”; in [8] (10.0 μM danazol), “stress fibers with multiple focal points”. Besides, the “effect on VE-cadherin phosphorylation” value with VE-Cadherin is “caused an increase in VE-cadherin phosphorylation”. In [6] (danazol 1 μM with S1P 1 μM, at 3 hours), the “effect on S1P-induced cortical actin rings” value is listed as “seemed to enhance the cortical rings”. For the same compound, the “effect on TNFα-induced stress fibers” value was “decreased the stress fiber formation and/or the thickness of the fibers at all times” in [6] (danazol 1 μM with TNFα 1 ng/ml); “decreased the stress fiber formation and the thickness of the fibers at all times” in assay [7]. Moreover, the “effect on TNFα-induced stress fiber development” value in assay [8] (TNFα 50 ng/ml, danazol 0.1 μM or 10 μM, LY294002 10 μM) is “decreased the number of cells exhibiting stress fiber development”. For the same compound, the “effect on the TER reduction caused by hydroxyflutamide” value in assay [9] (setting [11]) and in assay [10] (setting [11]) was “prevented the reduction caused by hydroxyflutamide” throughout. Also, the “effect on TER compared to the control” value in assay [9] (0.1 μM, Example 6) is given as “increased the TER measurements”; in assay [10] (Example 10, concentrations of Table 10) it was “increased the TER measurements”.
